Data from ChEMBL document CHEMBL1773025, “Synthesis of tetrahydronaphthalene lignan esters by intramolecular cyclization of ethyl p-azidophenyl-2-phenylalkanoates and evaluation of the growth inhibition of human tumor cell lines” (2011).
The source made the active and inactive calls. The rule behind the calls is not given here.

Tests used:
MCF7 = assay: Growth inhibition of human MCF7 cells after 48 hrs by sulforhodamine B assay; assay type: functional; conditions: MCF7, 48 h
NCI-H460 = assay: Growth inhibition of human NCI-H460 cells after 48 hrs by sulforhodamine B assay; assay type: functional; conditions: NCI-H460, 48 h
SF-268 = assay: Growth inhibition of human SF268 cells after 48 hrs by sulforhodamine B assay; assay type: functional; conditions: SF-268, 48 h
UACC-62 = assay: Growth inhibition of human UACC62 cells after 48 hrs by sulforhodamine B assay; assay type: functional; conditions: UACC-62, 48 h
HepG2 = assay: Growth inhibition of human HepG2 cells after 48 hrs by sulforhodamine B assay; assay type: functional, cell-based
WI-38 VA13 = assay: Growth inhibition of human VA13 cells after 48 hrs by sulforhodamine B assay; assay type: functional, cell-based

Row | SMILES | GI50 (MCF7) [µM] | GI50 (NCI-H460) [µM] | GI50 (SF-268) [µM] | GI50 (UACC-62) [µM] | growth inhibition (GI) (HepG2) | growth inhibition (GI) (WI-38 VA13)
1 | COC(=O)/C=C/c1ccc([N+](=O)[O-])cc1 | 214 | > 240 | > 240 | – | – | –
2 | CCOC(=O)C(CCc1ccc([N+](=O)[O-])cc1)c1ccccc1 (centres undefined) | 134 | > 150 | > 150 | – | – | –
3 | CCOC(=O)C(CCCc1cccc(N)c1)c1ccccc1 (centres undefined) | 109 | 154 | > 160 | 125 | – | –
4 | COC(=O)/C=C/c1cccc([N+](=O)[O-])c1 | 74.1 | 175 | 180 | – | – | –
5 | COc1cc(C2c3c(cc4c(c3OC)OCO4)CC(COC(C)=O)C2COC(C)=O)cc(OC)c1O (centres undefined) | – | – | – | – | inactive | –
6 | CCOC(=O)C(CCc1ccc(N=[N+]=[N-])cc1)c1ccccc1 (centres undefined) | 125 | > 160 | > 160 | – | – | –
7 | O=[N+]([O-])c1ccc(CCI)cc1 | 55.8 | 112 | 95.7 | – | – | –
8 | CCOC(=O)C(CCCc1cccc(N=[N+]=[N-])c1)c1ccccc1 (centres undefined) | 119 | > 150 | > 150 | – | – | –
9 | COc1cccc2c1C(=O)c1c(O)c3c(c(O)c1C2=O)C[C@@](O)(C(=O)CO)C[C@@H]3O[C@H]1C[C@H](N)[C@H](O)[C@H](C)O1 [DOXORUBICIN] | 42.8 | 0.094 | 0.094 | – | – | –
10 | CCOC(=O)C(CCc1ccc(N)cc1)c1ccccc1 (centres undefined) | 36.3 | 40.8 | 51.8 | 23.3 | – | –
11 | CCOC(=O)C(CCCc1ccc([N+](=O)[O-])cc1)c1ccccc1 (centres undefined) | 16.4 | 19.4 | 23.2 | – | – | –
12 | CCOC(=O)C(CCc1cccc(N=[N+]=[N-])c1)c1ccccc1 (centres undefined) | 120 | > 160 | > 160 | – | – | –
13 | CCOC(=O)C(CCCc1cccc([N+](=O)[O-])c1)c1ccccc1 (centres undefined) | 149 | > 150 | > 150 | – | – | –
14 | CCOC(=O)C(CCCc1ccc(N)cc1)c1ccccc1 (centres undefined) | 155 | > 160 | > 160 | > 100 | – | –
15 | CCOC(=O)C(CCCc1ccc(N=[N+]=[N-])cc1)c1ccccc1 (centres undefined) | > 150 | > 150 | > 150 | – | – | –
16 | CCOC(=O)C(CCc1cccc([N+](=O)[O-])c1)c1ccccc1 (centres undefined) | 92.7 | 149 | > 150 | – | – | –
17 | O=[N+]([O-])c1cccc(CCCO)c1 | > 250 | > 250 | > 250 | > 250 | – | –
18 | CCOC(=O)C1CCC(c2ccc(N)cc2)c2ccccc21 (racemic) | 117 | 142 | 116 | – | – | inactive
19 | CCOC(=O)C(CCc1cccc(N)c1)c1ccccc1 (centres undefined) | 104 | 132 | 159 | 102 | – | –
20 | CCOC(=O)C1CCC2(C=CC(=O)C=C2)c2ccccc21 (centres undefined) | 16.4 | 19.2 | 21.9 | – | – | –
